Reference: US20010056068A1, “METHOD OF TREATMENT AND PREVENTION OF NITRIC OXIDE DEFICIENCY-RELATED DISORDERS WITH CITRULLINE AND CITRULLINE DERIVATIVES” (priority 1998, published 2001)

Key:
[1] = tested on: normal and L-NAME-treated female rats; experiment: Systolic blood pressure by telemetry after oral citrulline in normal and L-NAME-treated female rats; type: in vivo, rat; settings: for decrease in blood pressure: 70 mg/rat at 24 h and 140 mg/rat at 48 h after pump insertion
Protocol: (§1) FIG. 1: The effect of a single administration of citrulline on the systolic blood pressure in normal and L-NAME-treated female rats. Intact female rats chronically instrumented with telemetric transducers allowing continuous monitoring of blood pressure were subcutaneusly implanted with osmotic mini-pumps releasing 50 mg/day L-NAME or 0.9% saline (controls). 24 hours after the pump insertion, the animals received 70 mg/rat citrulline orally per gavage. The systolic blood pressure was monitored for an additional 24 hours following citrulline treatment. N=5/group.
(§2) FIG. 2: The effect of multiple administration of citrulline on the systolic blood pressure in normal and L-NAME-treated female rats. Intact female rats chronically instrumented with telemetric transducers allowing continuous monitoring of blood pressure were subcutaneously implanted with osmotic mini-pumps releasing 50 mg/day L-NAME or vehicle (controls). 24 and 48 hours after the pump insertion, the animals received 70 and 140 mg/rat citrulline orally per gavage. The systolic blood pressure was monitored for an additional 24 hours following the second citrulline treatment. N=5/group
However, the systolic BP started to raise 4 hours after citrulline treatment.
In the experiment which results are presented in FIG. 2, the animals were treated twice with citrulline, i.e. 24 hours (70 mg/rat) and 48 after the start of L-NAME infusion. Similarly to FIG. 1, the first administration of citrulline was performed when the animals became hypertensive following L-NAME infusion.

[2] = tested on: normal and L-NAME-treated female rats; experiment: Heart rate by telemetry after oral citrulline in normal and L-NAME-treated female rats; type: in vivo, rat
Protocol: as §1, with “3:” for “1:”, “heart rate” for “systolic blood pressure”, “heart rate” for “blood pressure”, “subcutaneously” for “subcutaneusly”, “N=5/group” for “N=5/group.”
At this time there was also a pronounced increase in heart rate in the L-NAME-treated rats (to 400-450 times/minute). Following a single oral citrulline (70 mg) administration, there was a rapid and very pronounced (p<0.05) decrease in heart rate to approximately 100 times/minute reaching a plateau already 1 hour after treatment. […] The effects of citrulline sustained for 24 hours in both treatment and control groups of citrulline treatment.

[3] = tested on: normal and L-NAME-treated female rats; experiment: Observation of side-effects of citrulline administration in the rat experiments; type: in vivo; settings: oral 70 or 140 mg/rat, any experiment
Protocol: as §1, §2
FIG. 3: The effect of a single administration of citrulline on the heart rate in normal and L-NAME-treated female rats. […] The heart rate was monitored for an additional 24 hours following citrulline treatment. […]

[4] = female rats, 50 mg/day L-NAME by subcutaneous osmotic mini-pump, before citrulline
[5] = control female rats infused with vehicle, single oral 70 mg citrulline

Row | Compound | blood pressure effect 24 hours after start of L-NAME infusion [1, 4] | heart rate 24 hours after start of L-NAME infusion [2, 4] | side-effects of citrulline administration [3] | effect of second dose of 140 mg on blood pressure compared with first dose of 70 mg ([1]; L-NAME- and vehicle-treated female rats, multiple oral administration) | change in systolic blood pressure ([1]; L-NAME-treated (50 mg/day, osmotic mini-pump) female rats, single oral 70 mg citrulline 24 h after start of L-NAME infusion, N=5/group) | decrease in blood pressure ([1]; L-NAME-treated female rats, multiple oral administration) | change in blood pressure [1, 5] | time after treatment at which systolic BP started to rise [1, 5] [h] | hypertension and increase in heart rate induced by NOS inhibition with L-NAME ([1]; female rats, citrulline administered orally, overall conclusion) | decrease in blood pressure ([1]; vehicle-treated female rats, multiple oral administration) | time to plateau of heart rate decrease after treatment ([2]; L-NAME-treated female rats, single oral 70 mg citrulline) [h] | heart rate after treatment ([2]; L-NAME-treated female rats, single oral 70 mg citrulline 24 h after start of L-NAME infusion, p<0.05) | duration of the effects on heart rate ([2]; both treatment (L-NAME) and control groups, single oral 70 mg citrulline) [h] | change in heart rate [2, 5]
1 | COC(=O)[C@@H](N)CCCNC(=N)N[N+](=O)[O-] [L-NAME, N^G-nitro-L-arginine methyl ester, reference compound] | substantial hypertension | 400-450 times/minute |  |  |  |  |  |  |  |  |  |  |  | 
2 | NC(=O)NCCC[C@H](N)C(=O)O [citrulline] |  |  | No side-effects | slightly more effective | rapid and significant (p<0.05) decrease in systolic blood pressure | 30-40% | reduced blood pressure | 4 | partially attenuated | 30-40% | 1 | approximately 100 times/minute | 24 | reduced heart rate
